Results published in US20160158179A1, “NANOEMULSION THERAPEUTIC COMPOSITIONS AND METHODS OF USING THE SAME” (THE REGENTS OF THE UNIVERSITY OF MICHIGAN, priority 2008, published 2016).
Values after ≈ are worked out from the molar mass of the structure shown.

Key:
[1] = test system: H. influenzae clinical isolates; settings: ATCC H. influenzae 49247 quality control isolate; acceptable QC range; cited from earlier work
[2] = test system: H. influenzae clinical isolates; assay: MIC and MBC susceptibility assays (CLSI); type: cell-based, Haemophilus influenzae; settings: for MIC 50: Haemophilus influenzae, all H. influenzae strains of Table 6, control antibiotics
[3] = test system: Stenotrophomonas maltophilia; assay: MIC and MBC determination (CLSI, alamar blue), CF isolates
[4] = test system: Pseudomonas aeruginosa; assay: as above
[5] = test system: Pseudomonas, Burkholderia, Acinetobacter and Stenotrophomonas; assay: MIC and MBC determination (CLSI, alamar blue), all strains of Example 8
[6] = test system: Burkholderia cenocepacia; assay: MIC and MBC determination (CLSI, alamar blue), CF isolates
[7] = test system: Acinetobacter baumannii; assay: MIC and MBC determination (CLSI, alamar blue)
[8] = test system: Stenotrophomonas maltophilia; assay: MIC determination, CLSI microdilution with alamar blue; type: cell-based
[9] = test system: Acinetobacter baumannii; assay: as above; type: cell-based
[10] = test system: Pseudomonas aeruginosa; assay: as above; type: cell-based; settings: Pseudomonas aeruginosa (n = 5); nanoemulsions in the presence of 5 mM EDTA; in µg/mL
[11] = test system: Stenotrophomonas strains; assay: Checkerboard synergy study (FIC/FBC index); type: cell-based, Stenotrophomonas maltophilia; settings: in combination with P4075EC+EDTA
[12] = test system: Acinetobacter strains; assay: Checkerboard synergy study (FIC/FBC index); type: cell-based, Acinetobacter baumannii; settings: in combination with P4075EC+EDTA
[13] = test system: Burkholderia strains; assay: Checkerboard synergy study (FIC/FBC index); type: cell-based, Burkholderia cenocepacia; settings: in combination with P4075EC+EDTA
[14] = share of 10 Stenotrophomonas strains with synergy
[15] = share of 10 Acinetobacter strains with synergy
[16] = share of 10 Burkholderia strains with synergy

## CC[C@H]1OC(=O)[C@H](C)[C@@H](O[C@H]2C[C@@](C)(OC)[C@@H](O)[C@H](C)O2)[C@H](C)[C@@H](O[C@@H]2O[C@H](C)C[C@H](N(C)C)[C@H]2O)[C@](C)(O)C[C@@H](C)CN(C)[C@H](C)[C@@H](O)[C@]1(C)O [Azi, azithromycin]
[1]
  QC MIC range: A (QC MIC range is 1-4) μg/ml
[2]
  susceptibility of the majority of isolates by MIC90 values: susceptible
  MIC 50: 2 µg/mL (≈ 2.67 µM)

## CO/N=C(\C(=O)N[C@@H]1C(=O)N2C(C(=O)[O-])=C(C[N+]3(C)CCCC3)CS[C@H]12)c1csc(N)n1 [Cefepime]
[3]; Stenotrophomonas
  MIC 50: >32 µg/mL
  MIC 90: >32 µg/mL
[3]; Stenotrophomonas maltophilia
  MIC 90: > 32 µg/mL
[1]
  QC MIC range: C (QC MIC range is 0.5-2) μg/ml
[4]; Pseudomonas
  MIC 50: 2 µg/mL (≈ 4.16 µM)
  MIC 90: 32 µg/mL (≈ 66.6 µM)
[5]
  MIC 90: ≥ 2 µg/mL
[5]; read-out: MBC90
  MBC: > 32 µg/mL
[6]; Burkholderia
  MIC 90: >32 µg/mL
[6]; Burkholderia cenocepacia
  MIC 50: 32 µg/mL (≈ 66.6 µM)
  MIC 90: > 32 µg/mL
[2]
  susceptibility of the majority of isolates by MIC90 values: susceptible
  MIC 50: 0.125 µg/mL (≈ 0.26 µM)
[7]; Acinetobacter
  MIC 50: 32 µg/mL (≈ 66.6 µM)
  MIC 90: >32 µg/mL
[7]; Acinetobacter baumannii
  MIC 50: 32 µg/mL (≈ 66.6 µM)
  MIC 90: > 32 µg/mL

## O=C(O)CN(CCN(CC(=O)O)CC(=O)O)CC(=O)O [EDTA, ethylenediaminetetraacetic acid]
[8]; S. maltophilia (n = 5)
  number of strains inhibited by EDTA alone: 5
[9]; A. baumannii (n = 5)
  number of strains inhibited by EDTA alone: 3
[2]; EDTA alone
  EDTA concentration inhibiting growth of H. influenzae: ≥ 2 mM

## Colistin
[3]; S. maltophilia
  MBC 90: > 32 µg/mL
  MIC 90: > 32 µg/mL
[3]; Stenotrophomonas
  MBC 50: >32 µg/mL
  MBC 90: >32 µg/mL
  MIC 50: 16 µg/mL
  MIC 90: >32 µg/mL
[4]; P. aeruginosa
  MBC 90: 8 µg/mL
  MIC 90: 2 µg/mL
[4]; Pseudomonas
  MBC 50: 4 µg/mL
  MBC 90: 8 µg/mL
  MIC 50: 2 µg/mL
  MIC 90: 2 µg/mL
[8]; Stenotrophomonas maltophilia (n = 5), nanoemulsions in the presence of 5 mM EDTA, in µg/mL
  MIC Range: <=0.5-1
[10]
  MIC Range: <=0.5-2
[9]; Acinetobacter baumannii (n = 5), nanoemulsions in the presence of 5 mM EDTA, in µg/mL
  MIC Range: <=0.5-2
[11]; Stenotrophomonas
  Overall synergy result: Synergy
[11]; isolate NB42
  FIC: 0.08
  Synergy (FBC): indifferent
  Synergy (FIC): yes
[11]; isolate NB43
  FBC: 0.15
  FIC: 0.08
  Synergy (FBC): yes
  Synergy (FIC): yes
[11]; isolate NB44
  FBC: 0.57
  Synergy (FBC): indifferent
  Synergy (FIC): indifferent
[11]; isolate NB45
  FBC: 0.45
  FIC: 0.04
  Synergy (FBC): yes
  Synergy (FIC): yes
[11]; isolate Steno 1
  Synergy (FBC): yes and indifferent
  Synergy (FIC): yes and indifferent
[11]; isolate Steno 2
  Synergy (FBC): yes and indifferent
  Synergy (FIC): yes
[11]; isolate Steno 3
  Synergy (FBC): yes and indifferent
  Synergy (FIC): yes and indifferent
[11]; isolate Steno 4
  FBC: 1.61
  Synergy (FBC): indifferent
  Synergy (FIC): yes and indifferent
[11]; isolate Steno 6
  Synergy (FBC): yes and indifferent
  Synergy (FIC): yes and indifferent
[11]; isolate Steno 8
  Synergy (FBC): yes and indifferent
  Synergy (FIC): yes and indifferent
[11]; [14]
  % FBC Synergy: 70%
  % FIC Synergy: 90%
[6]; B. cenocepacia
  MBC 90: > 32 µg/mL
  MIC 90: > 32 µg/mL
[6]; Burkholderia
  MBC 50: >32 µg/mL
  MBC 90: >32 µg/mL
  MIC 50: >32 µg/mL
  MIC 90: >32 µg/mL
[6]; CF Burkholderia isolate NB26
  MIC: >32 µg/mL
[7]; 10 CF Acinetobacter isolates
  MBC 50: 4 µg/mL
  MBC 90: >16 µg/mL
  MIC 50: 1 µg/mL
  MIC 90: 1 µg/mL
[7]; A. baumannii
  MBC 90: > 16 µg/mL
  MIC 90: 1 µg/mL
[7]; Acinetobacter
  MBC 50: 4 µg/mL
  MBC 90: >16 µg/mL
  MIC 50: 1 µg/mL
  MIC 90: 1 µg/mL
[12]; Acinetobacter
  Overall synergy result: No Interference
[12]; isolate NB31
  FIC: 0.83
  Synergy (FBC): indifferent
  Synergy (FIC): indifferent
[12]; isolate NB32
  FIC: 0.58
  Synergy (FBC): indifferent
  Synergy (FIC): indifferent
[12]; isolate NB33
  FBC: 2
  FIC: 0.33
  Synergy (FBC): indifferent
  Synergy (FIC): yes
[12]; isolate NB34
  FBC: 1.10
  FIC: 0.46
  Synergy (FBC): indifferent
  Synergy (FIC): yes
[12]; isolate NB35
  FBC: 0.97
  FIC: 0.72
  Synergy (FBC): indifferent
  Synergy (FIC): indifferent
[12]; isolate NB36
  FBC: 2
  FIC: 0.56
  Synergy (FBC): indifferent
  Synergy (FIC): indifferent
[12]; isolate NB37
  FBC: 1.00
  FIC: 0.63
  Synergy (FBC): indifferent
  Synergy (FIC): indifferent
[12]; isolate NB38
  FBC: 0.68
  FIC: 0.77
  Synergy (FBC): indifferent
  Synergy (FIC): indifferent
[12]; isolate NB39
  FIC: 0.72
  Synergy (FBC): indifferent
  Synergy (FIC): indifferent
[12]; isolate NB40
  FBC: 0.91
  FIC: 0.63
  Synergy (FBC): indifferent
  Synergy (FIC): indifferent
[12]; [15]
  % FBC Synergy: 0%
  % FIC Synergy: 20%
[13]; Burkholderia
  Overall synergy result: No Interference
[13]; isolate NB21
  Synergy (FBC): indifferent
  Synergy (FIC): indifferent
[13]; isolate NB22
  Synergy (FBC): indifferent
  Synergy (FIC): indifferent
[13]; isolate NB23
  FBC: 2.00
  Synergy (FBC): indifferent
  Synergy (FIC): indifferent
[13]; isolate NB24
  FBC: 2.00
  Synergy (FBC): indifferent
  Synergy (FIC): indifferent
[13]; isolate NB25
  FBC: 3.00
  FIC: 2.00
  Synergy (FBC): indifferent
  Synergy (FIC): indifferent
[13]; isolate NB26
  FBC: 0.04
  FIC: 0.56
  Synergy (FBC): yes
  Synergy (FIC): yes
[13]; isolate NB27
  Synergy (FBC): indifferent
  Synergy (FIC): indifferent
[13]; isolate NB28b
  FIC: 0.29
  Synergy (FBC): indifferent
  Synergy (FIC): yes
[13]; isolate NB29
  Synergy (FBC): indifferent
  Synergy (FIC): indifferent
[13]; isolate NB30
  FIC: 0.02
  Synergy (FBC): indifferent
  Synergy (FIC): yes
[13]; [16]
  % FBC Synergy: 10%
  % FIC Synergy: 30%

## Gentamicin
[10]
  MIC Range: <=2-4
